In one experiment the target is T1, CK1α (Homo sapiens, UniProt P48729).
T1 construct: HEK293 clonal lines with CRISPR KI HiBiT tag on CSNK1A1
Put plainly: CK1α NanoBit Assay (HiBiT-tagged CSNK1A1, HEK293 clonal lines). To be noted: HEK293 HiBiT-CSNK1A1/LgBiT cells, 24 h incubation. Type of experiment: cell-based. In short, it runs like this:
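HEK293 clones carrying a CRISPR knock-in HiBiT tag on CSNK1A1 and stably expressing LgBiT are treated with compound for 24 hours at 37° C, 5% CO2, then read by luminescence. Response is normalized as 100*(S−N)/(P−N) against plate negative and positive controls, and DC50 values are derived.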

For a further experiment, the target named is CRBN/DDB1 (Homo sapiens, UniProt Q96SW2). The experiment is described as follows: HTRF binding assay (displacement of Cy5-thalidomide probe from CRBN/DDB1). To be noted: CRBN/DDB1 2.5 nM, Cy5-Thalidomide 100 nM, 30 min; geometric mean; read-out: HTRF_Thali_Disp_DR_geo_IC50. The source says: Binding of test compounds to CRBN/DDB1 was monitored in an HTRF assay using 1-[5-({2-[2-(2-{[2-(2,6-dioxopiperidin-3-yl)-1,3-dioxo-2,3-dihydro-1H-isoindol-4-yl]oxy}acetamido)ethoxy]ethyl}carbamoyl)pentyl]-3,3-dimethyl-2-[(1E,3E)-5-[(2E)-1,3,3-trimethyl-5-sulfo-2,3-dihydro-1H-indol-2-ylidene]penta-1,3-dien-1-yl]-3H-indol-1-ium-5-sulfonate as a fluorescent probe. In this assay, compounds displace the fluorescently labeled thalidomide-based probe bound to CRBN and fluorescence is monitored with increasing compound concentration. Assays were conducted in Greiner white 384 well HiBase plates (Cat. No 784075-25) in 10 μL total volume. A one pot detection solution of CRBN/DDB1 (2.5 nM), anti-His Terbium Cryptate Gold (1×, PerkinElmer Cat. #: 61HI2TLB), and Cy5-Thalidomide (100 nM, Tenova Cat.: T52461) was prepared in 20 mM HEPES, 20 mM NaCl, 0.2 mM TCEP, 0.2 mM EDTA, and 0.005% Tween20 was dispensed to each assay plate. Test compounds were stored in dry, ambient temperatures at 10 mM. A 10-point, 1:3 dilution series was prepared from 10 mM stock concentrations in Echo-compatible LDV plates. 10 nL of each compound dilution series was dispensed into assays wells using an Echo 650 (Labcyte inc. USA). 10 nL of 10 mM lenalidomide (Selleckchem Cat no. S1029) was transferred into the active-control wells for the assay and 10 nL of DMSO was transferred into the negative control wells. The assay was then allowed to incubate for 30 min at ambient temperature after transferring the test compounds. Plate measurements were taken on a Pherastar FSX (BMG Labtech, Germany) using the HTRF Red filter (Ex. 337 nm, em1: 620 nm, em2: 665 nm) (Flashes: 50, Integration time: 60-400 μs, Z-height: 10 mm, Ratio-multiplier: 10,000). Analysis, HTRF ratio and IC50 values were derived using KNIME analytics (KNIME Zurich) transformation and fitting within Collaborative Drug Discovery (Collaborative Drug Discovery USA) using a 4-parameter logistic fit. HTRF ratio calculation was performed using the following formula: […]
Sequence of CRBN/DDB1 (Q96SW2 whole entry, species assumed): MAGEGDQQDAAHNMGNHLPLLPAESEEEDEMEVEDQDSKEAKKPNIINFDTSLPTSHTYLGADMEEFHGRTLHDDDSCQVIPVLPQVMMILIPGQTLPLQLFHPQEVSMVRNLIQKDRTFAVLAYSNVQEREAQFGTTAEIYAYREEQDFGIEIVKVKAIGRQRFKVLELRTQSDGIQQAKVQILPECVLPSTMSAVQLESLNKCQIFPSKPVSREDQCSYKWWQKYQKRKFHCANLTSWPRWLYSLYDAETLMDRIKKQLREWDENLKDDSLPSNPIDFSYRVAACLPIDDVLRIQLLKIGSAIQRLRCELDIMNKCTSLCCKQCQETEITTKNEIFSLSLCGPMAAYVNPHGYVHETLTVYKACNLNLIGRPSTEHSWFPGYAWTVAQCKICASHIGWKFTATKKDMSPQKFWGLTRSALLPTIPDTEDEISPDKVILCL
Sequence of CRBN/DDB1 (Q16531 whole entry partner, species assumed): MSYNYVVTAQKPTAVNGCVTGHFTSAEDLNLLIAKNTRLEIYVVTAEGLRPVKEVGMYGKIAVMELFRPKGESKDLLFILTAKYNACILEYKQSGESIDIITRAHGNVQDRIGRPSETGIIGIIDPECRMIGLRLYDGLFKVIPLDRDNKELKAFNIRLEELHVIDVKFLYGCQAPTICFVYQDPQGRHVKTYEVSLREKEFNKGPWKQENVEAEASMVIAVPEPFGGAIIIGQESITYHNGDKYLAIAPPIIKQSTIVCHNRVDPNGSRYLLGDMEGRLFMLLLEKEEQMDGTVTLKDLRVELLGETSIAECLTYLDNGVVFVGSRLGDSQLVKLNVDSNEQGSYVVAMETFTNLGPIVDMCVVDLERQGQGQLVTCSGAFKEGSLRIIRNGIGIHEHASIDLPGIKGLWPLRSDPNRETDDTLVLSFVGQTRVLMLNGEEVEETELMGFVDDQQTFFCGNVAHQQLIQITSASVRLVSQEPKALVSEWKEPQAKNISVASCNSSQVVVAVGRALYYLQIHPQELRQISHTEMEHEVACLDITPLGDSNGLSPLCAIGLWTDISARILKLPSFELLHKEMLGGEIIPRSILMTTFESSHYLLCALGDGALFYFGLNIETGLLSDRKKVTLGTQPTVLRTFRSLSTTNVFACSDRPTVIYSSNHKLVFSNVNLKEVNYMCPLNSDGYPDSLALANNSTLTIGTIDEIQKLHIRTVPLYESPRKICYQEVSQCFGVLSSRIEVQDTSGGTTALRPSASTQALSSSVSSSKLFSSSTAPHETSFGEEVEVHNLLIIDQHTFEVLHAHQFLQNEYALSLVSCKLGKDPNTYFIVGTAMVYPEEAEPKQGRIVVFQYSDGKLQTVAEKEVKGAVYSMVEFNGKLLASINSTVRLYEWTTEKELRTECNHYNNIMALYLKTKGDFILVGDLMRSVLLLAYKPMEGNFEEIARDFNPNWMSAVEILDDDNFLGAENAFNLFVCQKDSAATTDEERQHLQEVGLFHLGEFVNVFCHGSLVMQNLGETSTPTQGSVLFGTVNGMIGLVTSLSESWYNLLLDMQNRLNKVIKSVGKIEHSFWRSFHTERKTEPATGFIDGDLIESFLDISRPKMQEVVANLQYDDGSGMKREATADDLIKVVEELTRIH
where Y represents the HTRF ratio response (as defined previously), X the compound concentration in μM, Ymin the minimum response plateau, Ymax the maximum response plateau, IC50 the concentration of agonist that gives a response half way between Ymin and Ymax and HillSlope the steepness of the family of curves. No fitting model constraints was applied on Ymin, or Ymax whilst IC50>0 and −0.5>HillSlope>−3
Ki values were derived from the geometric mean of the IC50 values using the Cheng-Prusoff transformation:
where [L] represents the concentration of fluorescent probe in μM, Kd the affinity (binding constant) of the fluorescent probe in units of μM and IC50 the concentration of agonist that gives a response halfway between Ymin and Ymax (as described in 1.2.1)
Analysis and IC50 values were derived using KNIME analytics (KNIME, Zurich) transformation and fitting within Collaborative Drug Discovery (Collaborative Drug Discovery, USA) as described in 1.2.1. Ki values were derived from the geometric mean of the IC50 values using the Cheng-Prusoff transformation as described in 2.2.2. Data was visualized in GraphPad Prism 8.1.2 (GraphPad, USA) and reported as mean and standard deviation. Microsoft Office Excel 2012 (Redmond, WA) was used for calculation of mean and standard deviation.
IC50 data are reported in Table 3 for compounds in Table 1. In Table 3 below, According to the code, A represents a IC50 value of ≤0.1 μM, B represents a IC50 value>0.1 μM and ≤1 μM, C represents an IC50 value>1 μM.

Each structure is given as a SMILES string.

T1 sequence (P48729 whole entry): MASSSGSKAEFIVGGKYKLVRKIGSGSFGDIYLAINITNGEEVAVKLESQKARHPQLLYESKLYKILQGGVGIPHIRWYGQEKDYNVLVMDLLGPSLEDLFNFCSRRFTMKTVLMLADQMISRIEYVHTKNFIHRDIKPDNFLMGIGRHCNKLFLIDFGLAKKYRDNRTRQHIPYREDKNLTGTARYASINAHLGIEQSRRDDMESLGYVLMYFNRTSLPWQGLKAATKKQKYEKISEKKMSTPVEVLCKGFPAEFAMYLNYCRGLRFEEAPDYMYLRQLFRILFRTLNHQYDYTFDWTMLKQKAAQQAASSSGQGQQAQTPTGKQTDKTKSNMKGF
T1 sequence (Q96SW2 whole entry, further chain): as the sequence (Q96SW2 whole entry, species assumed) above
T1 sequence (Q16531 2-1140 partner limits assumed): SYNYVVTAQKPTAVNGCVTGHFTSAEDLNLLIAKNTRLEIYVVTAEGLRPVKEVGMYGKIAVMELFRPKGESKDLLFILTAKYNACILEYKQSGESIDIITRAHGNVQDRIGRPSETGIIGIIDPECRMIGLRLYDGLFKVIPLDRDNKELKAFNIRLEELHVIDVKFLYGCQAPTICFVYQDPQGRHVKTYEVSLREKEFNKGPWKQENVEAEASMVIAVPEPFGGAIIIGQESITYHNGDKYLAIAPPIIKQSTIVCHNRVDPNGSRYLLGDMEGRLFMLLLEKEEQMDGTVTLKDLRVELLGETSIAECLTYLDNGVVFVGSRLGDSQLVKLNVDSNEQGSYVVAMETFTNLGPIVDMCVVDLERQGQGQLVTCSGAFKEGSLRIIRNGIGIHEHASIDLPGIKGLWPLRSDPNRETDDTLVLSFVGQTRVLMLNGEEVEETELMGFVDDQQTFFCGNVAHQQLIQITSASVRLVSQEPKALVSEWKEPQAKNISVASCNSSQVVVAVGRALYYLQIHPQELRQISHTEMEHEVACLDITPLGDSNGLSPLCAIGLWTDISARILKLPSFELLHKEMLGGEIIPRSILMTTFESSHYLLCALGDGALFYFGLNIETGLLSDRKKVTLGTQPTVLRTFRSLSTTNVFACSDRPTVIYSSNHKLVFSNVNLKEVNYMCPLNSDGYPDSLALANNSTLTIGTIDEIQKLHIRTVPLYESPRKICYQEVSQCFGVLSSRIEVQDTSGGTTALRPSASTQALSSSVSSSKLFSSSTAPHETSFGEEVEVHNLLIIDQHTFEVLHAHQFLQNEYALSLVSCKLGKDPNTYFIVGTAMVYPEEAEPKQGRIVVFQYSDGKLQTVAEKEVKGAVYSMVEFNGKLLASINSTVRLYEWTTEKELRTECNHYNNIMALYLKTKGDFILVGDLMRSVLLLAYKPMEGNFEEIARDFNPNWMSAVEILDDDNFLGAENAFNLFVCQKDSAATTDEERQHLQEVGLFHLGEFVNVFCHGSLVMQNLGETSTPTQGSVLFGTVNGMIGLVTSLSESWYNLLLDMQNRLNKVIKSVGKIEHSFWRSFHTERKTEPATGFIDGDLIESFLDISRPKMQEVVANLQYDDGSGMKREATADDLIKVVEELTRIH

As to `CCOC[C@@H]1Cc2ccccc2N1C(=O)Nc1ccc2c(c1)CN(C1CCC(=O)NC1=O)C2=O` (stereo partly drawn) [Compound 313, (2S)—N-(2-(2,6-dioxopiperidin-3-yl)-1-oxoisoindolin-5-yl)-2-(ethoxymethyl)indoline-1-carboxamide], the DC50 on CK1α is under 0.1 µM. In addition, the IC50 at CRBN/DDB1 lay in the range of 0.1 to 1 µM.

Take `COC[C@H]1CN(C(=O)Nc2ccc3c(c2)CN(C2CCC(=O)NC2=O)C3=O)c2ccc(C(F)(F)F)cc21` (stereo partly drawn) [Compound 319, (3R)—N-(2-(2,6-dioxopiperidin-3-yl)-1-oxoisoindolin-5-yl)-3-(methoxymethyl)-5-(trifluoromethyl)indoline-1-carboxamide]: the DC50 at CK1α was under 0.1 µM. The IC50 at CRBN/DDB1 lay within 0.1 to 1 µM.

As to `COCC1c2cc(C3CC3)ccc2CN1C(=O)Nc1ccc2c(c1)CN(C1CCC(=O)NC1=O)C2=O` (stereo not drawn) [Compound 333, 6-cyclopropyl-N-(2-(2,6-dioxopiperidin-3-yl)-1-oxoisoindolin-5-yl)-1-(methoxymethyl)isoindoline-2-carboxamide], the DC50 on CK1α is under 0.1 µM. In addition, the IC50 on CRBN/DDB1 lay in the range of 0.1 to 1 µM.

For the compound `O=C1CCC(N2Cc3cc(NC(=O)N4CCc5cccc(C(F)(F)F)c54)ccc3C2=O)C(=O)N1` (stereo not drawn) [Compound 117, N-(2-(2,6-dioxopiperidin-3-yl)-1-oxoisoindolin-5-yl)-7-(trifluoromethyl)indoline-1-carboxamide], at CK1α, the DC50 lay in the range of 0.1 to 1 µM. On CRBN/DDB1, the IC50 is 0.1 to 1 µM.

`O=C1CCC(N2Cc3cc(NC(=O)N4CCc5cccnc54)ccc3C2=O)C(=O)N1` (stereo not drawn) [Compound 112, N-(2-(2,6-dioxopiperidin-3-yl)-1-oxoisoindolin-5-yl)-2,3-dihydro-1H-pyrrolo[2,3-b]pyridine-1-carboxamide] registered a DC50 at CK1α of 0.1 to 1 µM. For the same compound, the IC50 on CRBN/DDB1 is over 1 µM.

With `O=C1CCC(N2Cc3cc(NC(=O)N4CC5(CCOC5)c5ccccc54)ccc3C2=O)C(=O)N1` (stereo not drawn) [Compound 317, N-(2-(2,6-dioxopiperidin-3-yl)-1-oxoisoindolin-5-yl)-4,5-dihydro-2H-spiro[furan-3,3′-indoline]-1′-carboxamide], on CK1α, the DC50 was under 0.1 µM. Besides, at CRBN/DDB1, the IC50 lay within 0.1 to 1 µM.

As to `C[C@@H]1Cc2ccc(F)cc2N1C(=O)Nc1ccc2c(c1)CN(C1CCC(=O)NC1=O)C2=O` (stereo partly drawn) [Compound 356, (2R)—N-(2-(2,6-dioxopiperidin-3-yl)-1-oxoisoindolin-5-yl)-6-fluoro-2-methylindoline-1-carboxamide], at CK1α, the DC50 is under 0.1 µM. On CRBN/DDB1, the IC50 was in the range of 0.1 to 1 µM.

In the case of `O=C1CCC(N2Cc3cc(NC(=O)N4Cc5cc(C6CC6)ccc5C45COC5)ccc3C2=O)C(=O)N1` (stereo not drawn) [Compound 302, 5-cyclopropyl-N-(2-(2,6-dioxopiperidin-3-yl)-1-oxoisoindolin-5-yl)spiro[isoindoline-1,3′-oxetane]-2-carboxamide], the DC50 on CK1α is under 0.1 µM. Further, at CRBN/DDB1, the IC50 was 0.1 to 1 µM.

`COCC1C2c3ccccc3N(C(=O)Nc3ccc4c(c3)CN(C3CCC(=O)NC3=O)C4=O)C12` (stereo not drawn) [Compound 320, N-(2-(2,6-dioxopiperidin-3-yl)-1-oxoisoindolin-5-yl)-1-(methoxymethyl)-1a, 6b-dihydrocyclopropa[b]indole-2(1H)-carboxamide] yielded a DC50 on CK1α of under 0.1 µM. Also, the IC50 at CRBN/DDB1 lay within 0.1 to 1 µM.

`O=C1CCC(N2Cc3cc(NC(=O)N4c5cccc(F)c5CC45COC5)ccc3C2=O)C(=O)N1` (stereo not drawn) [Compound 304, N-(2-(2,6-dioxopiperidin-3-yl)-1-oxoisoindolin-5-yl)-4-fluorospiro[indoline-2,3′-oxetane]-1-carboxamide] came in with a DC50 on CK1α of under 0.1 µM. For the same compound, on CRBN/DDB1, the IC50 was 0.1 to 1 µM.

Regarding `O=C1CCC(N2Cc3cc(NC(=O)N4CCc5ccc(C6COC6)cc54)ccc3C2=O)C(=O)N1` (stereo not drawn) [Compound 347, N-(2-(2,6-dioxopiperidin-3-yl)-1-oxoisoindolin-5-yl)-6-(oxetan-3-yl)indoline-1-carboxamide], at CK1α, the DC50 lay in the range of 0.1 to 1 µM. Also, at CRBN/DDB1, the IC50 was 0.1 to 1 µM.

On CK1α, `O=C1CCC(N2Cc3cc(NC(=O)N4CCc5ccc(C6CC6)cc54)ccc3C2=O)C(=O)N1` (stereo not drawn) [Compound 291, 6-cyclopropyl-N-(2-(2,6-dioxopiperidin-3-yl)-1-oxoisoindolin-5-yl)indoline-1-carboxamide] came in with a DC50 of under 0.1 µM. On CRBN/DDB1, the IC50 fell in the range of 0.1 to 1 µM.

For the compound `O=C1CCC(N2Cc3cc(NC(=O)N4c5ccccc5C[C@H]4COCC(F)(F)F)ccc3C2=O)C(=O)N1` (stereo partly drawn) [Compound 316, (2S)—N-(2-(2,6-dioxopiperidin-3-yl)-1-oxoisoindolin-5-yl)-2-((2,2,2-trifluoroethoxy)methyl)indoline-1-carboxamide], at CK1α, the DC50 is under 0.1 µM. Further, the IC50 at CRBN/DDB1 lay within 0.1 to 1 µM.

For the compound `O=C1CCC(N2Cc3cc(NC(=O)N4CCc5cccc(F)c54)ccc3C2=O)C(=O)N1` (stereo not drawn) [Compound 163, N-(2-(2,6-dioxopiperidin-3-yl)-1-oxoisoindolin-5-yl)-7-fluoroindoline-1-carboxamide], the DC50 on CK1α is under 0.1 µM. Also, the IC50 on CRBN/DDB1 lay in the range of 0.1 to 1 µM.

The compound `O=C1CCC(N2Cc3cc(NC(=O)N4CC5(CCCC5)c5ccccc54)ccc3C2=O)C(=O)N1` (stereo not drawn) [Compound 192, N-(2-(2,6-dioxopiperidin-3-yl)-1-oxoisoindolin-5-yl)spiro[cyclopentane-1,3′-indoline]-1′-carboxamide] registered a DC50 at CK1α of under 0.1 µM. Moreover, at CRBN/DDB1, the IC50 was in the range of 0.1 to 1 µM.

`CC1CN(C(=O)Nc2ccc3c(c2)CN(C2CCC(=O)NC2=O)C3=O)Cc2ccccc21` (stereo not drawn) [Compound 191, N-(2-(2,6-dioxopiperidin-3-yl)-1-oxoisoindolin-5-yl)-4-methyl-3,4-dihydroisoquinoline-2(1H)-carboxamide] yielded a DC50 on CK1α of under 0.1 µM. Also, the IC50 on CRBN/DDB1 is 0.1 to 1 µM.

In turn, `O=C1CCC(N2Cc3cc(NC(=O)N4c5cccc(F)c5C[C@H]4COC(F)F)ccc3C2=O)C(=O)N1` (stereo partly drawn) [Compound 308, (2S)-2-((difluoromethoxy)methyl)-N-(2-(2,6-dioxopiperidin-3-yl)-1-oxoisoindolin-5-yl)-4-fluoroindoline-1-carboxamide] had a DC50 at CK1α of under 0.1 µM. For the same compound, the IC50 at CRBN/DDB1 was in the range of 0.1 to 1 µM.

On CK1α, `O=C1CCC(N2Cc3cc(NC(=O)N4c5ccccc5CC45COC5)ccc3C2=O)C(=O)N1` (stereo not drawn) [Compound 322, N-(2-(2,6-dioxopiperidin-3-yl)-1-oxoisoindolin-5-yl)spiro[indoline-2,3′-oxetane]-1-carboxamide] yielded a DC50 of under 0.1 µM. At CRBN/DDB1, the IC50 fell in the range of 0.1 to 1 µM.

Consider `COC(C)c1cccc2c1CCN2C(=O)Nc1ccc2c(c1)CN(C1CCC(=O)NC1=O)C2=O` (stereo not drawn) [Compound 343, N-(2-(2,6-dioxopiperidin-3-yl)-1-oxoisoindolin-5-yl)-4-(1-methoxyethyl)indoline-1-carboxamide], for which the DC50 at CK1α was under 0.1 µM. Further, the IC50 at CRBN/DDB1 lay in the range of 0.1 to 1 µM.

In turn, `COC[C@@H]1Cc2c(F)cccc2N1C(=O)Nc1ccc2c(c1)CN(C1CCC(=O)NC1=O)C2=O` (stereo partly drawn) [Compound 314, (2S)—N-(2-(2,6-dioxopiperidin-3-yl)-1-oxoisoindolin-5-yl)-4-fluoro-2-(methoxymethyl)indoline-1-carboxamide] registered a DC50 at CK1α of under 0.1 µM. The IC50 at CRBN/DDB1 is 0.1 to 1 µM.

The compound `O=C1CCC(N2Cc3cc(NC(=O)N4c5ccccc5C[C@H]4CN4CCC4)ccc3C2=O)C(=O)N1` (stereo partly drawn) [Compound 315, (2S)-2-(azetidin-1-ylmethyl)-N-(2-(2,6-dioxopiperidin-3-yl)-1-oxoisoindolin-5-yl)indoline-1-carboxamide] yielded a DC50 at CK1α of 0.1 to 1 µM. Further, the IC50 on CRBN/DDB1 lay within 0.1 to 1 µM.

Values taken from patent publication US20250171420A1 (Monte Rosa Therapeutics, Inc., priority 2022, published 2025).
